Common to all, as to format: cell-based
Test [1] has as its system Enterococcus faecalis ATCC29212. The test can be described thus: MIC, microbroth dilution (NCCLS). The conditions noted are these: rifS strain, BHI Broth, 37° C., read-out: Antimicrobial activity (MIC). Background: Broth dilution looks for growth in wells or tubes with falling amounts of substance.
In test [2] the test system is Haemophilus influenzae ATCC10211. Kind of test: MIC, microbroth dilution (NCCLS). Particulars: rifS strain, BHI Broth with NAD and hematin, 37° C., read-out: Antimicrobial activity (MIC).
Test [3] relates to Streptococcus pyogenes ATCC19615. Kind of test: MIC, microbroth dilution (NCCLS). The conditions noted are these: rifS strain, THY Broth, 37° C., read-out: Antimicrobial activity (MIC).
The subject of test [4] is Staphylococcus epidermidis ATCC12228. Kind of test: MIC, microbroth dilution (NCCLS). The conditions noted are these: rifS strain, Cation-Adjusted Mueller-Hinton Broth, 37° C., read-out: Antimicrobial activity (MIC).
Test [5] relates to Streptococcus pneumoniae ATCC6303. The test can be described thus: MIC, microbroth dilution (NCCLS). Particulars: rifS strain, THY Broth with 1 mg/mL catalase, 5% CO2, 37° C., read-out: Antimicrobial activity (MIC).
Test [6] deals with Mycobacterium smegmatis ATCC700084. The test can be described thus: MIC, microbroth dilution (NCCLS). The conditions noted are these: Mycolicibacterium smegmatis, rifS strain, Middlebrook Broth plus ADC Enrichment, 37° C., read-out: Antimicrobial activity (MIC).
Test [7] has as its system Staphylococcus aureus EN1252a gyrA^S84L grlA^S80F. Kind of test: microbe, parasite or virus in culture. Particulars: read-out: Antimicrobial activity (MIC). The gist of the method: (§1)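 MICs by NCCLS broth microdilution, incubation at 37 °C, in cation-adjusted Mueller-Hinton broth. Strains: rifampin-resistant S. aureus ATCC 29213 with rpoB D417Y or H418Y, and quinolone-resistant EN1252a carrying gyrA S84L plus grlA S80F.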

Test [8] has as its system Staphylococcus aureus ATCC29213 rpoB^D417Y. Kind of test: microbe, parasite or virus in culture. The gist of the method:
as §1

In test [9] the test system is Staphylococcus aureus ATCC29213 rpoB^H418Y. The test can be described thus: microbe, parasite or virus in culture. A digest of the protocol:
as §1

The subject of test [10] is Escherichia coli ATCC25922. Kind of test: MIC, microbroth dilution (NCCLS). Particulars: rifS strain, Cation-Adjusted Mueller-Hinton Broth, 37° C., read-out: Antimicrobial activity (MIC).
Test [11] relates to Staphylococcus aureus ATCC29213. The test can be described thus: MIC, microbroth dilution (NCCLS). Particulars: rifS strain, Cation-Adjusted Mueller-Hinton Broth, 37° C., read-out: Antimicrobial activity (MIC).
The nature of test [12]: MIC, rifampin-susceptible Gram-positive strains (panel). Particulars: across five rifampin-susceptible Gram-positive strains. How it is done: (§2) Representative compounds were assayed for antimicrobial activity as follows: Minimum Inhibitory Concentrations (“MICs”) were determined by the microbroth dilution method as per NCCLS guidelines (National Committee for Clinical Laboratory Standards. 2000. Methods for dilution antimicrobial susceptibility tests for bacteria that grow aerobically, 5th ed. M7-A5. National Committee for Clinical Laboratory Standards, Wayne, Pa.), except that all growth incubations were conducted at 37° C. Bacterial cultures were tested in the following bacteriological media: S. aureus, S. epidermidis, and E. coli in Cation-Adjusted Mueller-Hinton Broth, S. pneumoniae in THY Broth supplemented with 1 mg/mL catalase under 5% CO2 atmosphere, S. pyogenes in THY Broth, E. faecalis in BHI Broth, H. influenzae in BHI Broth supplemented with 0.75 μL of 1 mg/mL NAD and 150 μL of 1 mg/ml hematin per 5 mL, and M. smegmatis in Middlebrook Broth plus ADC Enrichment.
(§3) S. aureus ATCC […], S. epidermidis ATCC 12228, S. pneumoniae ATCC6303, S. pyogenes ATCC 19615 and E. faecalis ATCC 29212 are rifampin-susceptible Gram-positive strains. […] H. influenzae ATCC 10211 and E. coli ATCC 25922 are Gram-negative bacteria.

For test [13], the system named is H. influenzae ATCC 10211 and E. coli ATCC 25922. Kind of test: MIC, Gram-negative bacteria (panel). The conditions noted are these: across two Gram-negative strains. How it is done:
as §2, §3

The mark [14] stands for this setting: ATCC29213, read-out: Antimicrobial activity (MIC).

Each structure is given as a SMILES string. In brackets after ≈: the same amount, converted by molar mass. Read-outs that look alike come from different tables or passages of the source.

As for `CO[C@H]1/C=C/O[C@@]2(C)Oc3c(C)c(O)c4c(c3C2=O)C(=O)C(N2CC(C(=O)N3CCN(c5ccc(N6C[C@H](CNC(C)=O)OC6=O)cc5F)CC3)C2)=C(NC(=O)/C(C)=C\C=C\[C@H](C)[C@H](O)[C@@H](C)[C@@H](O)[C@@H](C)[C@H](OC(C)=O)[C@@H]1C)C4=O` [Example 48, 3-{3-(4-[1-(5-methyl-acetamidyl-2-oxo-oxazolidin-3-yl)-5-fluoro-phen-4-yl]-piperazin-1-ylcarbonyl)-azetidin-1-yl}-rifamycin S], the MIC in [1] was 2 to 32 µg/mL (≈ 1.8 to 28.7 µM); in test [2], 0.125 to 2 µg/mL (≈ 0.112 to 1.8 µM); in test [3], 0.008 to 0.063 µg/mL (≈ 0.00719 to 0.0566 µM); in test [4], 0.008 to 0.063 µg/mL (≈ 0.00719 to 0.0566 µM); in test [5], 0.008 to 0.125 µg/mL (≈ 0.00719 to 0.112 µM); in test [6], 0.5 to 64 µg/mL. The MIC in test [7] was 0.004 to 0.5 µg/mL (≈ 0.00359 to 0.449 µM); in test [8] (setting [14]), 0.06 to 32 µg/mL (≈ 0.0539 to 28.7 µM); in test [9] (setting [14]) it was 0.06 to 16 µg/mL (≈ 0.0539 to 14.4 µM); in test [10] it was 0.125 to 8 µg/mL (≈ 0.112 to 7.19 µM); in test [11], 0.004 to 0.5 µg/mL (≈ 0.00359 to 0.449 µM).
Take `COc1c(N2CCN(C(=O)C3CCN(C4=C5NC(=O)/C(C)=C\C=C\[C@H](C)[C@H](O)[C@@H](C)[C@@H](O)[C@@H](C)[C@H](OC(C)=O)[C@H](C)[C@@H](OC)/C=C/O[C@@]6(C)Oc7c(C)c(O)c(c(c7C6=O)C4=O)C5=O)CC3)CC2)c(F)cc2c(=O)c(C(=O)O)cn(C3CC3)c12` [Example 51, 3-{4-[4-(3-Carboxy-1-cyclopropyl-6-fluoro-8-methoxy-4-oxo-1,4-dihydroquinolin-7-yl)-piperazin-1-ylcarbonyl]-piperidin-1-yl}rifamycin S]: the MIC lay in the range of 2 to 32 µg/mL (≈ 1.71 to 27.4 µM) in test [1]; 0.125 to 2 µg/mL (≈ 0.107 to 1.71 µM) in test [2]; 0.008 to 0.063 µg/mL (≈ 0.00686 to 0.054 µM) in test [3]; 0.008 to 0.063 µg/mL (≈ 0.00686 to 0.054 µM) in test [4]; 0.008 to 0.125 µg/mL (≈ 0.00686 to 0.107 µM) in test [5]; 0.5 to 64 µg/mL in test [6]. Also, the MIC in test [7] fell in the range of 0.004 to 0.5 µg/mL (≈ 0.00343 to 0.429 µM); in test [8] (setting [14]) it was 0.06 to 32 µg/mL (≈ 0.0514 to 27.4 µM); in test [9] (setting [14]), 0.06 to 16 µg/mL (≈ 0.0514 to 13.7 µM); in test [10], 0.125 to 8 µg/mL (≈ 0.107 to 6.86 µM); in [11], 0.004 to 0.5 µg/mL (≈ 0.00343 to 0.429 µM).
Turning to `COc1c(N2CC(NC(=O)C3CCN(C4=C5NC(=O)/C(C)=C\C=C\[C@H](C)[C@H](O)[C@@H](C)[C@@H](O)[C@@H](C)[C@H](OC(C)=O)[C@H](C)[C@@H](OC)/C=C/O[C@@]6(C)Oc7c(C)c(O)c(c(c7C6=O)C4=O)C5=O)CC3)C2)c(F)cc2c(=O)c(C(=O)O)cn(C3CC3)c12` [Example 53, 3-{4-[1-(3-Carboxy-1-cyclopropyl-6-fluoro-8-methoxy-4-oxo-1,4-dihydroquinolin-7-yl)-azetidin-3-ylcarbamoyl]-piperidin-1-yl}rifamycin S], the MIC in test [1] fell in the range of 2 to 32 µg/mL (≈ 1.74 to 27.8 µM); in test [2] it was 0.125 to 2 µg/mL (≈ 0.108 to 1.74 µM); in test [3], 0.008 to 0.063 µg/mL (≈ 0.00694 to 0.0547 µM); in test [4], 0.008 to 0.063 µg/mL (≈ 0.00694 to 0.0547 µM); in test [5] it was 0.008 to 0.125 µg/mL (≈ 0.00694 to 0.108 µM); in [6], 0.5 to 64 µg/mL. Further, the MIC in test [7] was 0.004 to 0.5 µg/mL (≈ 0.00347 to 0.434 µM); in [8] (setting [14]), 0.06 to 32 µg/mL (≈ 0.0521 to 27.8 µM); in test [9] (setting [14]), 0.06 to 16 µg/mL (≈ 0.0521 to 13.9 µM); in test [10], 0.125 to 8 µg/mL (≈ 0.108 to 6.94 µM); in [11], 0.004 to 0.5 µg/mL (≈ 0.00347 to 0.434 µM).
Take `CO[C@H]1/C=C/O[C@@]2(C)Oc3c(C)c(O)c4c(c3C2=O)C(=O)C(N2CCN(c3nc5c(cc3F)c(=O)c(C(=O)O)cn5C3CC3)CC2)=C(NC(=O)/C(C)=C\C=C\[C@H](C)[C@H](O)[C@@H](C)[C@@H](O)[C@@H](C)[C@H](OC(C)=O)[C@@H]1C)C4=O` [Example 55, 3-[1-(3-Carboxy-1-cyclopropyl-6-fluoro-4-oxo-1,4-dihydro-[1,8]naphthyridine-7-yl)-piperazin-4-yl]-rifamycin S]: the MIC was 2 to 32 µg/mL (≈ 1.95 to 31.2 µM) in test [1]; 0.125 to 2 µg/mL (≈ 0.122 to 1.95 µM) in [2]; 0.008 to 0.063 µg/mL (≈ 0.0078 to 0.0614 µM) in test [3]; 0.008 to 0.063 µg/mL (≈ 0.0078 to 0.0614 µM) in test [4]; 0.008 to 0.125 µg/mL (≈ 0.0078 to 0.122 µM) in test [5]; 0.5 to 64 µg/mL in [6]. Also, the MIC in test [7] fell in the range of 0.004 to 0.5 µg/mL (≈ 0.0039 to 0.487 µM); in [8] (setting [14]), 0.06 to 32 µg/mL (≈ 0.0585 to 31.2 µM); in test [9] (setting [14]), 0.06 to 16 µg/mL (≈ 0.0585 to 15.6 µM); in test [10], 0.125 to 8 µg/mL (≈ 0.122 to 7.8 µM); in [11] it was 0.004 to 0.5 µg/mL (≈ 0.0039 to 0.487 µM).
In the case of `CO[C@H]1/C=C/O[C@@]2(C)Oc3c(C)c(O)c4c(c3C2=O)C(=O)C(N2CCCC3(CCN(c5nc6c(cc5F)c(=O)c(C(=O)O)cn6-c5ccc(F)cc5F)C3)C2)=C(NC(=O)/C(C)=C\C=C\[C@H](C)[C@H](O)[C@@H](C)[C@@H](O)[C@@H](C)[C@H](OC(C)=O)[C@@H]1C)C4=O` (stereo partly shown) [Example 60], the MIC in [1] lay within 2 to 32 µg/mL (≈ 1.74 to 27.8 µM); in test [2], 0.125 to 2 µg/mL (≈ 0.108 to 1.74 µM); in [3], 0.008 to 0.063 µg/mL (≈ 0.00694 to 0.0547 µM); in test [4], 0.008 to 0.063 µg/mL (≈ 0.00694 to 0.0547 µM); in test [5], 0.008 to 0.125 µg/mL (≈ 0.00694 to 0.108 µM); in [6], 0.5 to 64 µg/mL. Further, the MIC in test [7] is 0.004 to 0.5 µg/mL (≈ 0.00347 to 0.434 µM); in test [8] (setting [14]), 0.06 to 32 µg/mL (≈ 0.0521 to 27.8 µM); in [9] (setting [14]), 0.06 to 16 µg/mL (≈ 0.0521 to 13.9 µM); in [10] it was 0.125 to 8 µg/mL (≈ 0.108 to 6.94 µM); in test [11], 0.004 to 0.5 µg/mL (≈ 0.00347 to 0.434 µM).
`CO[C@H]1/C=C/O[C@@]2(C)Oc3c(C)c(O)c4c(O)c(c(/C=N/N5CCN(C)CC5)c(O)c4c3C2=O)NC(=O)/C(C)=C\C=C\[C@H](C)[C@H](O)[C@@H](C)[C@@H](O)[C@@H](C)[C@H](OC(C)=O)[C@@H]1C` [rifampin, reference compound]: the MIC in test [1] was 1 µg/mL (≈ 1.22 µM); in [12], 0.008 to 1 µg/mL (≈ 0.00972 to 1.22 µM); in test [2] it was 0.24 µg/mL (≈ 0.292 µM); in test [3], 0.013 µg/mL (≈ 0.0158 µM); in test [4], 0.03 µg/mL (≈ 0.0365 µM); in test [5], 0.061 µg/mL (≈ 0.0741 µM). Moreover, the MIC was 64 µg/mL in test [6]; 0.004 µg/mL (≈ 0.00486 µM) in [7]; above 64 µg/mL in test [8] (ATCC29213); above 64 µg/mL in test [8] (setting [14]); 8 µg/mL (≈ 9.72 µM) in test [9] (ATCC29213); 8 µg/mL (≈ 9.72 µM) in test [9] (setting [14]). Further, the MIC in test [10] is 16 µg/mL (≈ 19.4 µM); in [11], 0.008 µg/mL (≈ 0.00972 µM); in test [13] it was 0.24 to 16 µg/mL (≈ 0.292 to 19.4 µM).

(Values after US7247634B2, “Rifamycin derivatives effective against drug-resistant microbes” (Cumbre Pharmaceuticals Inc., priority 2004, dated 2007).)
